Values quoted from earlier work in patent US20060251704A1, “Methods and devices for efficacious treatment of aphthous ulcers” (priority 2005, published 2006).

Test system: aphthous ulcers (RAS)
Details: by the 6th day

CC(C)c1ccc2oc3nc(N)c(C(=O)O)cc3c(=O)c2c1 [amlexanox]
patients with healed ulcers (vehicle control 54.7%): 65.6% | patients pain free (patients with RAS, control group 72.8%): 82.8%
